{
  "source": "patent US20190054194A1",
  "about": "“System and Method For Evaluation of Subjects Using Magnetic Resonance Imaging and Oxygen-17” (Case Western Reserve University, priority 2017, published 2019)",
  "assay": "dynamic golden-angle 17O-MRI of H2^17O uptake and washout in brain after intravenous bolus injection (control and glioblastoma mice)",
  "type": "in vivo",
  "text": "In one configuration, tumor and brain may be differentiated with the present methods, such as to assess the presence of a glioblastoma. […] For example, the method may allow for differentiation between subjects with a moderate tumor volume (<30%, GBM-M) and those with a large tumor volume (>30%, GBM-L). Once image reconstruction has been completed, ^17O images may be coregistered with the T2-weighted ^1H images. Tumor areas may show higher signal intensity in T2-weighted ^1H images due to having a longer T2 than normal brain tissue. Appropriate regions of interest (ROIs) that encompass the tumor and normal brain tissue may be drawn manually from T2-weighted ^1H images, or automatic segmentation routines may be used to define the ROIs. Total tumor and brain volumes may be calculated by adding the tumor and brain areas in all of the image slices. The percentage of tumor volume may then be calculated as the tumor volume divided by total brain volume.\n^17O signal may be normalized by the corresponding natural abundance ^17O signal acquired before H2^17O injection or administration. Peak H2^17O uptake may be identified as the maximal signal intensity following H2^17O administration. A normalized time course of the ^17O signal from peak uptake to the end of the measurement may be fit to a monoexponential function in a pixel-wise fashion to generate the maps of peak and steady-state H2^17O uptake, as well as its washout rate. Mean values for each ROI may be calculated for each map. In tissue with no obvious washout phase or even continued accumulation of H2^17O after the injection, washout rate may be set to zero, while peak and steady-state H2^17O uptake may be calculated as the normalized ^17O signals immediately after H2^17O injection and at the end of measurement, respectively.",
  "key": {"[1]": {"details": "GBM-L mice (large tumor volume >30%)"}},
  "data": [
    {"molecule": "[17OH2]", "note": "[H2^17O, ^17O-labeled water]", "values": [
      {"measurement": "H2^17O uptake in normal brain tissue", "setting": "[1]", "result": "significantly reduced H2^17O uptake"},
      {"measurement": "H2^17O washout in normal brain tissue", "setting": "[1]", "result": "prolonged washout"},
      {"measurement": "H2^17O washout in tumors", "setting": "[1]", "result": "no obvious washout phase, or even continuous accumulation of H2^17O after injection"},
      {"measurement": "H2^17O uptake in tumors", "setting": "GBM-M mice (moderate tumor volume <30%)", "result": "reduced H2^17O uptake"},
      {"measurement": "H2^17O uptake and washout (17O signal kinetics) in brain", "setting": "control mice, after H2^17O injection", "result": "rapid uptake and washout"}
    ]}
  ]
}
